Converted amounts (≈) assume the structure as drawn.

The test system of the test is P388. The test can be described thus: Cytotoxicity against mouse P388 cells after 4 days by MTT method. The following applies: P388, 96 h. The format is functional, cell-based.
As a reminder, the IC50 is the point on the concentration scale where inhibition reaches its midpoint. `CC(C)=CC(=O)/C=C(/C)CCC/C(C)=C/CC[C@@H](C)O` [HEDAOL A]: the midpoint of inhibition, the IC50, lay at 5.1 µg/mL (≈ 18.3 µM).
On to `CC(C)=CC(=O)C/C(C)=C/CC/C(C)=C/CC[C@@H](C)O` [HEDAOL B], for which the IC50 amounted to 2.2 µg/mL (≈ 7.9 µM).
The value for `CC(C)=CC(=O)/C=C(\C)CCC/C(C)=C/CC[C@@H](C)O` [HEDAOL C] was 50 µg/mL (≈ 180 µM).

For the origin of these results see ChEMBL document CHEMBL1150844, “Isolation and structures of hedaols A, B, and C, new bisnorditerpenes from a Japanese brown alga” (J Nat Prod, 2001).
